{"source": "patent US7306817B2", "about": "“Herbal composition for treating CD33+ acute and chronic myeloid leukemia and a method thereof” (Council of Scientific and Industrial Research, priority 2000, dated 2007)", "key": {"[1]": {"tested_on": "AML cells", "assay": "Growth inhibition of AML cells in vitro", "type": "cell-based, human", "conditions": "single fraction, dose 100 μg/ml, 48 hrs", "protocol": "(§1) Whole blood (10 ml) was drawn from a previously diagnosed CD33+ myeloid leukemic patient and mononuclear cells were separated by Ficoll/hypaqal density gradient centrifugation.\n(§2) Incubation of PBMC of myeloid leukemia patients with purified compound 3-O-p-coumaryl quinic acid in vitro. PBMC (2×10^6/ml) of myeloid leukemia patients were incubated with varied concentrations of purified compound for 48 h. Cells were then washed, and counted for viability.\nIncubation of myeloid leukemic cells with fractions having retention time 3.60 (fraction-1) and 24.00 min (fraction 9). PBMC of myeloid leukemic patients were incubated with above-mentioned fractions, alone or in combination of the two for 48 hrs. Cells were then washed and counted for viability."}, "[2]": {"tested_on": "CD33+ myeloid leukemia cells", "assay": "Destruction of CD33+ myeloid leukemia cells (patient PBMC) in vitro, viability count and flow cytometry", "type": "cell-based, human", "conditions": "purified compound, varied concentrations, 48 h", "protocol": "as §1\nIncubation of PBMC of myeloid leukemia patients with crude Piper betel extract. PBMC (2×10^6/ml) of myeloid leukemia patients were incubated with Piper betel extract (10.0 mg/ml) for 48 hours and then washed and counted for viability.\nIncubation of PBMC of myeloid leukemia patients with fraction E in vitro. PBMC (2×10^6/ml) of myeloid leukemia patients were incubated with varied concentrations of fraction E for 48 hours. Cells were then washed and counted for viability.\nas §2\nFlow cytometry of myeloid leukemia cells; Myeloid leukemia cells before and after in vitro incubation with crude Piper betel extract, purified fraction E or purified 3-O-p-coumaryl quinic acid were marked with anti-CD33-FITC and anti-CD13-PE monoclonal antibodies. Cells were then analysed in a flow cytometer (FACS Calibur, Bection Dickinson, USA)."}}}
{"smiles": "O=C(C=Cc1ccc(O)cc1)OC1CC(O)(C(=O)O)CC(O)C1O", "note": "(centres unmarked) [3-O-p-coumaryl quinic acid]", "values": [{"measurement": "% Inhibition of growth", "setting": "[1]", "value": 54.00, "unit": "%"}, {"measurement": "effect on PBMC of CD33+ myeloid leukemia patients (both AML and CML)", "setting": "[2]", "value": "destroyed"}]}
